In patent US20240374724A1, “ENPP1 INHIBITORS AND IMMUNE CELLS EXPRESSING CHIMERIC ANTIGEN RECEPTORS” (Angarus Therapeutics, Inc., priority 2021, published 2024):
Blank lines part the entries; values can stand above or below the compound they belong to.

Key:
[1] = target: T1, purified recombinant mouse ENPP1 (Mus musculus, UniProt P06802); assay: ENPP1 activity assay using TMP-pNP as a substrate; assay type: biochemical; details: TMP-pNP 2 μM, mouse ENPP1 0.5 nM, pH 7.5
T1 sequence (P06802 1-906): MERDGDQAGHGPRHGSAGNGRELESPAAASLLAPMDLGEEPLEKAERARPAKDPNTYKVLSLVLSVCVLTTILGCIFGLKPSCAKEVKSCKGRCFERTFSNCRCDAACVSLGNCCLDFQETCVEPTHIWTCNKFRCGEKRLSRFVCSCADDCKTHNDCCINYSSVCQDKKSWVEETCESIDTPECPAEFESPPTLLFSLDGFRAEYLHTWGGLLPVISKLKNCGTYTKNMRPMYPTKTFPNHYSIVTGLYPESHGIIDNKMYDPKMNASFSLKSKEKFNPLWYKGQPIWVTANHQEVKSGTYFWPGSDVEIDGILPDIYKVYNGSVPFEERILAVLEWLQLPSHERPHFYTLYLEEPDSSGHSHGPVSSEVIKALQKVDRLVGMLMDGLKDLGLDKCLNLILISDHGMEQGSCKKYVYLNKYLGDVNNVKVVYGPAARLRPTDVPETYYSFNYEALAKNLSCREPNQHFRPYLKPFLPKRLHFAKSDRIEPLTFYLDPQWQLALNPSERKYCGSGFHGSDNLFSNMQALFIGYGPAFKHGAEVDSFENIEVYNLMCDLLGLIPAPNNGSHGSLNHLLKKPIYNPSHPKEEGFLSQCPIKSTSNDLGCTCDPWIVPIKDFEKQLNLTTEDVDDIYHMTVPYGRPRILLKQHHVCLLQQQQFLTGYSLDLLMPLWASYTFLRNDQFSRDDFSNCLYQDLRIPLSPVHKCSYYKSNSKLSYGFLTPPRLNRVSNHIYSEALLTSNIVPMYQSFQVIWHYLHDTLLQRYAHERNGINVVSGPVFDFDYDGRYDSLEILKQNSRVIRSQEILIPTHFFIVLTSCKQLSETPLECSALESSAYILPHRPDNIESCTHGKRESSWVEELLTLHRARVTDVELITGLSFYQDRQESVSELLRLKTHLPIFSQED
Experimental: Selected compounds of Table 1, Table 2, Table 3, Table 4, Table 5, or Table 6 and other derivatives were prepared and assessed in an ENPP1 activity assay using thymidine monophosphate paranitrophenol (TMP-pNP) as a substrate. Enzyme reactions were prepared with TMP-pNP (2 μM), 5-fold dilutions of ENPP1 inhibitor, and purified recombinant mouse ENPP1 (0.5 nM) in 100 mM Tris, 150 mM NaCl, 2 mM CaCl2, 200 μM ZnCl2, pH 7.5 at room temperature. Reaction progress was monitored by measuring absorbance at 400 nm of paranitrophenolate produced by the reaction for 20 minutes.

4T1-luciferase tumor = 4T1-luciferase tumor model: IR with compound 1, cGAMP and/or anti-CTLA-4; tumor volume and survival; assay type: in vivo, Balb/c mice; details: 20 Gy IR + 10 μg cGAMP intratumoral alone
B16F10 melanoma = B16F10 melanoma with pmel-1 donor splenocytes (adoptive T cell therapy): tumor size and tumor flow cytometry; assay type: in vivo, C57BL/6 mice
From the text: For the study, 0.2×10^6 B16F10 melanoma cells/mouse were implanted on day −8 on flanks of C57BL/6 female mice. On day 0, when tumor size had reached about 80 mm3, mice were randomized into 3 groups with an n=12/group. All mice in the three groups were subjected to whole body irradiation with 5.0 Gy for lymphodepletion. […] gp100 specific donor splenocytes were harvested from C57BL/6 pmel-1 donor mice (The Jackson Laboratory, world wide web.jax.org/strain/005023). Briefly, splenocytes comprising immune cells such as T cells from spleens of 18 pmel-1 female C57BL/6 mice (Jackson labs) were harvested yielding˜90 Million splenocytes. The pmel-1 splenocytes were isolated, the red blood cells lysed, and the remaining splenocytes expanded and activated with IL-2 and gp100 antigen for 4 days in vitro, and administered to the B16 melanoma bearing mice by i.v. On day 7, mice were sacrificed, and tumor, spleen, and blood samples were collected. Tumor size of all three treatment groups were measured on days 0, 2, 5 and 7 (FIGS. 6 and 7). […] After mice were sacrificed, tumor samples were tested for the fraction of several live immune cells (CD45+ cells) in the tumor. Briefly, tumors were harvested, and samples digested with tumor digestion mix and cells collected and washed in FACS buffer. A sample of cells was stained with a live/dead stain (ef780) to test for live cells and enumerated by flow cytometry. […] When staining for intracellular markers, cells were fixed and permeabilized before staining with markers (ki67). For example, cells were stained with markers for MDSC and F4/80 macrophages and enumerated by flow cytometry. […] Samples were also analyzed for the percentage of gp100+, CD8+ T cells actively proliferating (ki67+ cells) that were present in the tumor.

IFN-γ secretion = assay: IFN-γ ELISA / ELISpot of splenocytes from B16F10 tumor bearing mice given donor T cells; assay type: in vivo, C57BL/6 mice
From the text: This example describes the in vitro activation and expansion of donor C57BL/6 pmel-1 splenocytes by INF-γ ELISA and INF-γ Elispot analysis of splenocytes derived from B16F10 melanoma syngeneic tumor model inoculated with Pmel-1 donor splenocytes (T-cells). Briefly, spleens and splenocytes from C57BL-B16F10 tumor bearing mice treated with or without an ENPP1 inhibitor and donor T cells are harvested and purified as described in Example 8. To test for cytokine secretion, the isolated splenocytes are then plated and co-cultured with gp100 peptide on a plate of an ELISpot kit and IFN-γ secretion is detected. The number of spots is counted for each well and summarized for each group. Additionally, or alternatively, IFN-γ secretion is detected with a IFN-γ ELISA test.

4T1 tumor model = assay: Tumor-associated dendritic cells in mouse 4T1 tumor model with or without IR (FACS); assay type: in vivo, Balb/c mice; details: intratumoral 100 μL of 1 mM
Experimental: Anaesthetized animals were shielded with a 3.2 mm lead shield with a 15×20 mm aperture where the tumor was placed. […] On the next day, the tumor was extracted and incubated in RPMI+10% FBS with 20 μg/mL DNase I type IV (Sigma-Aldrich) and 1 mg/mL Collagenase from Clostridium histolyticum (Sigma-Aldrich) at 37° C. for 30 min. […] Cells were stained with Live/Dead fixable near-IR dead cell staining kit (Thermo Fisher Scientific), Fc-blocked for 10 min using TruStain fcX and subsequently antibody-stained with CD11c, CD45, and I-A/I-E (all Biolegend). Cells were analyzed using an SH800S cell sorter (Sony) or an LSR II (BD Biosciences).

[2] = 50 mg/kg plus donor splenocytes

Experimental for CD14+ IFNB1 expression: Primary human peripheral blood mononucleocyte cells (PBMCs) were isolated by subjecting enriched buffy coat from whole blood to a Percoll density gradient. CD14^+ monocytes were isolated using CD14^+ MicroBeads (Miltenyi). CD14^+ monocyctes were cultured in RPMI supplemented with 2% human serum and 100 U/mL penicillin-streptomycin. […] 24-26 hours following supernatant transfer, total RNA was extracted using Trizol (Thermo Fisher Scientific) and reverse transcribed with Maxima H Minus Reverse Transcriptase (Thermo Fisher Scientific). Real-time RT-PCR was performed in duplicate with AccuPower 2×Greenstar qPCR Master Mix (Bioneer) on a 7900HT Fast Real-Time PCR System (Applied Biosystems). Data were normalized to CD14 expression for each sample. Fold induction was calculated using ΔΔCt.
Supernatant from these cells was transferred to primary CD14^+ human PBMCs. IFNB1 mRNA levels were normalized to CD14 and the fold induction was calculated relative to untreated CD14^+ cells.

IC50 [1]: 0.005 to 0.05 µM
SMILES: O=P(O)(O)CCC1CCN(c2ncnc3ccccc23)CC1 [compound 25]

SMILES: Nc1nc2c(ncn2[C@@H]2O[C@@H]3COP(=O)(O)O[C@H]4[C@@H](O)[C@H](n5cnc6c(N)ncnc65)O[C@@H]4COP(=O)(O)O[C@@H]2[C@@H]3O)c(=O)[nH]1 [cGAMP, cyclic guanosine monophosphate-adenosine monophosphate]
effect over IR treatment (tumor) (4T1-luciferase tumor): no effect

SMILES: COc1cccc2c(N3CCC(CCP(=O)(O)O)CC3)ncnc12 [Compound 76]
tumor size at day 7 compared to PBS with donor cells (B16F10 melanoma; 5 mg/kg and donor T cells): smaller reduction in tumor size
percentage of F4/80+ macrophages in tumors compared to PBS with donor T cells (B16F10 melanoma; 5 mg/kg plus donor T cells): higher
percentage of MDSC macrophages in tumors compared to PBS with donor T cells (B16F10 melanoma; 5 mg/kg plus donor T cells): lower
percentage of live cells in tumors compared to PBS with donor T cells (B16F10 melanoma; 5 mg/kg plus donor T cells): higher
percentage of Thy1.1+ (pmel-1 derived), gp100+, CD8+ donor T cells in tumors compared to PBS with donor splenocytes (B16F10 melanoma; 5 mg/kg plus donor splenocytes): higher
percentage of Thy1.2+ host cells in tumors (B16F10 melanoma; 5 mg/kg plus donor splenocytes): declined reciprocally
percentage of gp100+, CD8+, ki67+ T cells in tumors compared to PBS with donor splenocytes (B16F10 melanoma; 5 mg/kg plus donor splenocytes): higher
tumor size at day 7 compared to PBS with donor cells (B16F10 melanoma; 50 mg/kg and donor T cells): marked reduction in tumor size
percentage of F4/80+ macrophages in tumors compared to PBS with donor T cells (B16F10 melanoma; 50 mg/kg plus donor T cells): higher
percentage of MDSC macrophages in tumors compared to PBS with donor T cells (B16F10 melanoma; 50 mg/kg plus donor T cells): lower
percentage of live cells in tumors compared to PBS with donor T cells (B16F10 melanoma; 50 mg/kg plus donor T cells): higher
percentage of Thy1.1+ (pmel-1 derived), gp100+, CD8+ donor T cells in tumors compared to PBS with donor splenocytes (B16F10 melanoma; [2]): higher
percentage of Thy1.2+ host cells in tumors (B16F10 melanoma; [2]): declined reciprocally
percentage of gp100+, CD8+, ki67+ T cells in tumors compared to PBS with donor splenocytes (B16F10 melanoma; [2]): higher
IFN-γ secretion compared to PBS with donor T cells (IFN-γ secretion; 5 mg/kg plus donor T cells): elevated
IFN-γ secretion compared to PBS with donor T cells (IFN-γ secretion; 50 mg/kg plus donor T cells): elevated

SMILES: COc1cc2ncnc(N3CCC(CCP(=O)(O)O)CC3)c2cc1OC [compound 1]
extracellular cGAMP levels (CD14+ IFNB1 expression; 293T cGAS ENPP1low cells transiently overexpressing ENPP1): rescued
CD14+ IFNB1 expression (CD14+ IFNB1 expression; supernatant of ENPP1-overexpressing 293T cGAS ENPP1low cells transferred to CD14+ monocytes): induced
tumor-associated leukocyte compositions compared to the PBS control (4T1 tumor model; no IR): did not change
tumor associated CD11c+ population (4T1 tumor model; tumors pretreated with 20 Gy IR): increased
